Measurements: patent US20060154871A1, “Peptides” (ReGen Therapeutics PIc, priority 1999, published 2006)

Tested on: rabbits
Test: Serum antibody titre by ELISA against the corresponding synthetic peptide antigen, before and after the 10 week immunisation of rabbits
Assay type: in vivo, rabbit
Settings: for Titre: (Serum Dilution) Post Immunization R1: rabbit R1, after 10 week immunisation protocol, 200 μg peptide conjugate per inoculation; for Titre: (Serum Dilution) Pre Immunization R1: rabbit R1, pre immunization serum, ELISA with synthetic peptide antigen; for antigenic response: rabbits R1 and R2, summary of Table 6
Source text: To each N-terminal end of the synthetic peptides, L-cysteine was attached, and the peptide was formed into a ring so that the cysteine group lay between the N-terminal and the C-terminal ends of the synthetic peptide. This facilitated peptide conjugation with Keyhole Hemolymph (KHL). The shorter peptides (i.e. those containing 9 or fewer amino acids) were artificially elongated with biologically inert amino acids prior to attaching the L-cysteine. This was done in order to facilitate annealing and increase the antigenicity of the shorter peptides.
For immunisation, two young adult rabbits (5-6 months old, weighing 5-6 lbs [2.3-2.7 kg]) were used. Each antigen (i.e., each synthetic peptide) was given subcutaneously and intramuscularly in 0.1 ml injections at ten different sites. The protocol used followed the following sequence:
The level of antibodies in the serum was established by ELISA (enzyme-linked immunosorbent assay) with the corresponding synthetic peptide antigen. This technique involved the following steps: • 1. The antigen was diluted with a 0.1 M bicarbonate buffer (pH 9.0) to yield a 10 μg of antigen/ml solution. A volume of 50 μl of this solution was placed into each microwell of a 96 well plate. • 2. The plates were covered and incubated at 37° C. for 3 hours. • 3. The wells were washed with a coupling buffer and blocked using 200 μl of Pierce standard solution of BSA (bovine serum albumin). • 4. 50 μl of dilutent BSA (0.75% soln.) was pipetted into each well. 50 μl of antibody serum sample diluted 1:100 in dilutent BSA were placed in lane A of each row. • 5. 1:2 serial dilutions were performed moving down the plate. • 6. The plates were covered and incubated at room temperature for 60 minutes. • 7. The plates were washed four times with PBS wash solution. • 8. A volume of 50 μl of goat anti-rabbit IgG (H&L) HRP conjugate at 1:1000 dilution in BSA was pipetted into each well and incubated at room temperature for 60 minutes (H&L=heavy and light chain; HRP=horseradish peroxidase). • 9. The plates were washed four times with PBS wash solution. • 10. A volume of 50 μl of substrate solution 2,2′-azino-bis(3-ethylbenzothiazoline-6-sulfonic acid)-diammonium salt (ABTS available from Pierce, which is used to help visualise the extent of the antibody/antigen reaction) was pipetted into each well and incubated at room temperature for about 2 minutes. • 11. The reaction was stopped by adding 50 μl of 1% SDS (sodium dodecyl sulfate) into each well. • 12. The wells were then read on a dynoplate reader at 405.
The data presented in Table 6 show the serum antibody titers against specific antibodies after the 10 week immunisation protocol.

Substance | Titre: (Serum Dilution) Post Immunization R1 | Titre: (Serum Dilution) Pre Immunization R1 | antigenic response
VVMEV [Peptide B-6] | 25600 | 0 | 
ATFNRYQDDHGEEILKSL [Peptide D-1, annexin precursor peptide, Annexin Position 203-220] | 12800 | 0 | 
DSQPPV [Peptide B-4] | 25600 | 0 | 
LFFFLPVVNVLP [Peptide B-8, Colostrinin peptide (possibly) having β-casein homologue precursor] | 200 | 0 | significantly lower than expected
SEQP [Peptide A-5] | 3200 | 0 | 
AFLLYQE [Peptide C-12, β-casein precursor peptide, Casein Position 202-208] | 12800 |  | 
SEEMP [Peptide B-3] | 25600 | 0 | 
MPQNFYKLPQM [Peptide A-2, Colostrinin peptide of unknown precursor] | 6400 | 0 | 
VLPPNVG [Peptide B-1, Colostrinin peptide (possibly) having β-casein homologue precursor] | 26500 | 0 | 
DLEMPVLPVEPFPFV [Peptide B-7, Colostrinin peptide (possibly) having β-casein homologue precursor] | 25600 | 0 | 
MQPPPLP [Peptide B-9, Colostrinin peptide (possibly) having β-casein homologue precursor] | 3200 | 0 | 
FPPPK [Peptide B-5] | 12800 | 0 | 
KYKLQPE [Peptide B-2, Colostrinin peptide (possibly) having β-casein homologue precursor] | 25600 | 0 | 
LQTPQPLLQVMMEPQGD [Peptide A-1, Colostrinin peptide of unknown precursor] | 6400 | 0 | significantly lower than expected
DQPPDVEKPDLQPFQVQS [Peptide B-10, Colostrinin peptide (possibly) having β-casein homologue precursor] | 12800 | 0 | 
VLEMKFPPPPQETVT [Peptide A-3, Colostrinin peptide of unknown precursor] | 6400 | 0 | 
LKPFPKLKVEVFPFP [Peptide A-4, Colostrinin peptide of unknown precursor] | 6400 | 0 | 
DPPPPQS [Peptide A-7, Colostrinin peptide of unknown precursor] | 3400 | 0 | significantly lower than expected
